{"source": "patent US8476253B2", "about": "“Amide derivative” (Daiichi Sankyo Company, Limited, priority 2009, dated 2013)", "key": {"neurokinin NK2 receptor": {"molecular_target": "T1, neurokinin NK2 receptor (Cavia porcellus, UniProt Q64077)", "T1 construct": "Using healthy guinea pigs (body weight, 350 to 550 g; Hartley male guinea pigs); from tissue; host or cells: live anaesthetised Hartley male guinea pigs (airway, in vivo)", "T1 sequence (Q64077 1-402)": "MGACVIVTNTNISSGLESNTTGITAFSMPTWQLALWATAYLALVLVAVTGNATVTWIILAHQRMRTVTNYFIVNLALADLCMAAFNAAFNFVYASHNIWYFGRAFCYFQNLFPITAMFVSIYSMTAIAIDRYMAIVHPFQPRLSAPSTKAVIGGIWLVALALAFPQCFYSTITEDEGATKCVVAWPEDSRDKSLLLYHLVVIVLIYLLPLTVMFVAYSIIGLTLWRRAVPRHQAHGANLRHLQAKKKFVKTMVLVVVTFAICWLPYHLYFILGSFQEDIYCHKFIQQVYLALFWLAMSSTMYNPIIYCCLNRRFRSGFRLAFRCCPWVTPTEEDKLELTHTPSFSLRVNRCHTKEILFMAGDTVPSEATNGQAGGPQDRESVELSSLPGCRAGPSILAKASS", "assay": "Effect of suppressing neurokinin A-induced airway contraction (in vivo, intratracheal administration)", "set-up": "species or system guinea pig", "conditions": "guinea pigs, intratracheal administration 60 minutes before 4 μg/kg i.v. NKA, AUC of increase in airway pressure over 10 minutes; for ED50: guinea pig, read-out: ID50 (the source's name)", "description": "Using healthy guinea pigs (body weight, 350 to 550 g; Hartley male guinea pigs), the effect of suppressing airway contraction induced by neurokinin A (NKA), which is an NK2 receptor agonist, was examined by a modified method of Konzett-Roessler (Naunyn-Schmiedebergs Arch. Exp. Pathol. Pharmakol. 195, 71 [1940]) using airway pressure as an indicator.\nA tracheal cannula and a venous cannula were attached to a guinea pig anesthetized with pentobarbital (50 mg/mL solution, 0.40 to 0.50 mL/body, subcutaneous administration). An arterial cannula filled with heparin-containing physiological saline (100 U/mL) was further attached, and blood pressure and heart rate were monitored via an amplifier and an instantaneous heart rate meter. Subsequently, gallamine (20 mg/body, intravenous administration) was administered to terminate spontaneous breathing, and 10 mL/kg of positive pressure breathing (Ugo-Basile Biological Research Apparatus, Cat. No. 7025) was rapidly performed at 60 times/min. The airway pressure during artificial breathing was detected with a pressure transducer (TP-200T or TP-400T; Nihon Kohden Corporation) attached to a side branch of the tracheal cannula, amplified (AP-601G; Nihon Kohden Corporation), and recorded in a recorder. After the airway pressure, blood pressure, and heart rate were stabilized, 4 μg/kg of NKA was intravenously administered from the venous cannula to induce airway contraction, and the airway pressure was measured for the following 10 minutes.\nThe test substance was dissolved in a 5% glucose solution, and a 0.5 mL/kg solution was intratracheally administered with an intratracheal administration apparatus (model 1A-1B; Penn-Century, Inc.) 60 minutes before stimulation with NKA.\nThe AUC of increase in the airway pressure over 10 minutes after administration of NKA was determined as the intensity of NKA-induced airway contraction and calculated as an ID50 value from the inhibition rate based on the value of the control group (5% glucose solution intratracheal administration group)."}, "human M3 receptor": {"molecular_target": "T2, human M3 receptor (Homo sapiens, UniProt P20309)", "T2 construct": "expressed in transfected cells; host or cells: CHO cells", "T2 sequence (P20309 whole entry)": "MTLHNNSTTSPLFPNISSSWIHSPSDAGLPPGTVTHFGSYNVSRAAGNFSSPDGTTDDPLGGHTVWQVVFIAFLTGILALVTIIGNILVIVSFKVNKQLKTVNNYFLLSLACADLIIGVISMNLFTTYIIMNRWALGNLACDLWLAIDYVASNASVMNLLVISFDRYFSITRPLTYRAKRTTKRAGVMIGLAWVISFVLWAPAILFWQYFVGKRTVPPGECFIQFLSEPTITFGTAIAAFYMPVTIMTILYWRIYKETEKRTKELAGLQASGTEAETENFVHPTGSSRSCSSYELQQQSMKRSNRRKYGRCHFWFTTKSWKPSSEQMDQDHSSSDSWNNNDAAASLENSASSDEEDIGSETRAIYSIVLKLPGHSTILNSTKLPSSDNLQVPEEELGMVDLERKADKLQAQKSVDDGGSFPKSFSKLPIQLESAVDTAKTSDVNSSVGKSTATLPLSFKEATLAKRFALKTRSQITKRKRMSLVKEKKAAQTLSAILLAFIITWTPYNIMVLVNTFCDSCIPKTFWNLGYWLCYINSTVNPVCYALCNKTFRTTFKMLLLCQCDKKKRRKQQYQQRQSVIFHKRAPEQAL", "assay": "Test for binding to human M3 receptor", "in_short": "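CHO-cell crude membranes expressing human M3 were incubated with [N-methyl-3H]-(−)-scopolamine methyl chloride in 50 mM Tris-HCl, 0.5 mM EDTA, pH 7.4, for 60 min at room temperature. Bound ligand was collected on PEI-pretreated glass-fibre filters and counted by liquid scintillation. Ki was calculated from IC50 and the radioligand Kd.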"}, "substance P receptor": {"molecular_target": "T3, substance P receptor (Cavia porcellus, UniProt P30547)", "T3 construct": "A preparation of a crude lung membrane sample was prepared; from tissue; host or cells: guinea-pig lung (crude membrane sample)", "T3 sequence (P30547 whole entry)": "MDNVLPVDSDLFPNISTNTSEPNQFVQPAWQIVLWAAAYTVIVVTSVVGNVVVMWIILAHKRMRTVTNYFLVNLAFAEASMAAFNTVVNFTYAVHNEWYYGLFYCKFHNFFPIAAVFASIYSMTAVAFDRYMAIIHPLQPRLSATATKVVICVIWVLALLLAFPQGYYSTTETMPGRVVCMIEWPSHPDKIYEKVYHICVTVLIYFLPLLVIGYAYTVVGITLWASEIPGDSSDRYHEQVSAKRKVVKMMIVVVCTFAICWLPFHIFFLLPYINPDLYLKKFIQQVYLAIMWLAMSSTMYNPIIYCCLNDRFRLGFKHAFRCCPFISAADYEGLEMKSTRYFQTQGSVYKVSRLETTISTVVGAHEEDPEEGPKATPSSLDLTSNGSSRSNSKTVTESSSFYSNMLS", "assay": "Test for binding to guinea-pig substance P receptor (crude lung membrane sample)", "conditions": "crude guinea-pig lung membrane sample, [3H]substance P; Ki from IC50 and Kd; read-out: Ki", "description": "A preparation of a crude lung membrane sample was prepared, and a test for binding of a test substance to the sample was performed according to the method described in EP0336230A2.\nThe binding effect of the test substance to a substance P receptor was calculated as an affinity (Ki) of the test substance for the substance P receptor from a 50% binding concentration (IC50) and an affinity (Kd) of [^3H]substance P for the substance P receptor."}, "[1]": {"conditions": "CHO cells expressing human M3 receptor, [N-methyl-3H]-(-)-Scopolamine methyl chloride 0.5 nM, Ki from IC50 and Kd, read-out: Ki"}}, "note": "Counter-ions that a name gives are not always drawn. Like-named read-outs stand apart in the source and are kept apart here.", "data": [{"smiles": "CN(CCN1CCC(OC(=O)Nc2ccccc2-c2ccccc2)CC1)C(=O)CCCCCNc1ccc(C(=O)N(C)CCN(C)C(=O)CO[C@H]2Cc3ccccc3C23CCN(CC[C@@]2(c4ccc(F)cc4)CN(C(=O)c4cc(C(F)(F)F)cc(C(F)(F)F)c4)CO2)CC3)cc1", "note": "[Example 15, 1-(2-{[6-({4-[{2-[({[(2S)-1-{2-[(5R)-3-[3,5-Bis(trifluoromethyl)benzoyl]-5-(4-fluorophenyl)-1,3-oxazolidin-5-yl]ethyl}-2,3-dihydrospiro[indene-1,4′-piperidin]-2-yl]oxy}acetyl)(methyl)amino]ethyl}(methyl)carbamoyl]phenyl}amino)hexanoyl](methyl)amino}ethyl)piperidin-4-yl biphenyl-2-ylcarbamate]", "values": [{"measurement": "ID50", "setting": "neurokinin NK2 receptor", "result": 0.0377, "unit": "mg/kg"}, {"measurement": "Ki", "setting": "human M3 receptor; [1]", "result": 1.2, "unit": "nM"}, {"measurement": "Ki", "setting": "substance P receptor", "result": 1.5, "unit": "nM"}]}, {"smiles": "CN(CCN1CCC(OC(=O)Nc2ccccc2-c2ccccc2)CC1)C(=O)COCCCNc1ccc(C(=O)N(C)CCCN(C)C(=O)CO[C@H]2Cc3ccccc3C23CCN(CC[C@@]2(c4ccc(F)cc4)CN(C(=O)c4cc(C(F)(F)F)cc(C(F)(F)F)c4)CO2)CC3)cc1", "note": "[Example 27, 1-{2-[{[3-({4-[{3-[({[(2S)-1′-{2-[(5R)-3-[3,5-Bis(trifluoromethyl)benzoyl]-5-(4-fluorophenyl)-1,3-oxazolidin-5-yl]ethyl}-2,3-dihydrospiro[indene-1,4′-piperidin]-2-yl]oxy}acetyl)(methyl)amino]propyl}(methyl)carbamoyl]phenyl}amino)propoxy]acetyl}(methyl)amino]ethyl}piperidin-4-yl biphenyl-2-ylcarbamate trihydrochloride]", "values": [{"measurement": "ED50", "setting": "neurokinin NK2 receptor", "result": 0.0135, "unit": "mg/kg"}, {"measurement": "Ki", "setting": "human M3 receptor", "result": 1.4, "unit": "nM"}, {"measurement": "Ki", "setting": "substance P receptor", "result": 1.2, "unit": "nM"}]}, {"smiles": "Cc1cc(NCCCCCC(=O)N(C)CCN2CCC(OC(=O)Nc3ccccc3-c3ccccc3)CC2)sc1C(=O)N(C)CCCN(C)C(=O)CO[C@H]1Cc2ccccc2C12CCN(CC[C@@]1(c3ccc(F)cc3)CN(C(=O)c3cc(C(F)(F)F)cc(C(F)(F)F)c3)CO1)CC2", "note": "[Example 30, 1-(2-{[6-({5-[{3-[({[(2S)-1′-{2-[(5R)-3-[3,5-Bis(trifluoromethyl)benzoyl]-5-(4-fluorophenyl)-1,3-oxazolidin-5-yl]ethyl}-2,3-dihydrospiro[indene-1,4′-piperidin]-2-yl]oxy}acetyl)(methyl)amino]propyl}(methyl)carbamoyl]-4-methyl-2-thienyl}amino)hexanoyl](methyl)amino}ethyl)piperidin-4-yl biphenyl-2-ylcarbamate trihydrochloride]", "values": [{"measurement": "ED50", "setting": "neurokinin NK2 receptor", "result": 0.0632, "unit": "mg/kg"}, {"measurement": "Ki", "setting": "human M3 receptor", "result": 0.62, "unit": "nM"}, {"measurement": "Ki", "setting": "substance P receptor", "result": 1.9, "unit": "nM"}]}, {"smiles": "CN(CCN1CCC(OC(=O)Nc2ccccc2-c2ccccc2)CC1)C(=O)CCNc1ccc(C(=O)N(C)CCCN(C)C(=O)CO[C@H]2Cc3ccccc3C23CCN(CC[C@@]2(c4ccc(F)cc4)CN(C(=O)c4cc(C(F)(F)F)cc(C(F)(F)F)c4)CO2)CC3)cc1", "note": "[Example 94, 1-{2-[(N-{4-[{3-[({[(2S)-1′-{2-[(5R)-3-[3,5-Bis(trifluoromethyl)benzoyl]-5-(4-fluorophenyl)-1,3-oxazolidin-5-yl]ethyl}-2,3-dihydrospiro[indene-1,4′-piperidin]-2-yl]oxy}acetyl)(methyl)amino]propyl}(methyl)carbamoyl]phenyl}-β-alanyl)(methyl)amino]ethyl}piperidin-4-yl biphenyl-2-ylcarbamate]", "values": [{"measurement": "ED50", "setting": "neurokinin NK2 receptor", "result": 0.0431, "unit": "mg/kg"}, {"measurement": "Ki", "setting": "human M3 receptor; [1]", "result": 2, "unit": "nM"}, {"measurement": "Ki", "setting": "substance P receptor", "result": 0.81, "unit": "nM"}]}, {"smiles": "CN(CCN1CCC(OC(=O)Nc2ccccc2-c2ccccc2)CC1)C(=O)CCCCCNc1cccc(C(=O)N(C)CCCN(C)C(=O)CO[C@H]2Cc3ccccc3C23CCN(CC[C@@]2(c4ccc(F)cc4)CN(C(=O)c4cc(C(F)(F)F)cc(C(F)(F)F)c4)CO2)CC3)c1", "note": "[Example 43, 1-(2-{[6-({3-[{3-[({[(2S)-1′-{2-[(5R)-3-[3,5-Bis(trifluoromethyl)benzoyl]-5-(4-fluorophenyl)-1,3-oxazolidin-5-yl]ethyl}-2,3-dihydrospiro[indene-1,4′-piperidin]-2-yl]oxy}acetyl)(methyl)amino]propyl}(methyl)carbamoyl]phenyl}amino)hexanoyl](methyl)amino}ethyl)piperidin-4-yl biphenyl-2-ylcarbamate trihydrochloride]", "values": [{"measurement": "ED50", "setting": "neurokinin NK2 receptor", "result": 0.0241, "unit": "mg/kg"}, {"measurement": "Ki", "setting": "human M3 receptor", "result": 2.6, "unit": "nM"}, {"measurement": "Ki", "setting": "substance P receptor", "result": 1.6, "unit": "nM"}]}, {"smiles": "CN(CCCCCC(=O)N(C)CCN1CCC(OC(=O)Nc2ccccc2-c2ccccc2)CC1)Cc1ccc(C(=O)N(C)CCCN(C)C(=O)CO[C@H]2Cc3ccccc3C23CCN(CC[C@@]2(c4ccc(F)cc4)CN(C(=O)c4cc(C(F)(F)F)cc(C(F)(F)F)c4)CO2)CC3)cc1", "note": "[Example 74, 1-{2-[{6-[{4-[{3-[({[(2S)-1′-{2-[(5R)-3-[3,5-Bis(trifluoromethyl)benzoyl]-5-(4-fluorophenyl)-1,3-oxazolidin-5-yl]ethyl}-2,3-dihydrospiro[indene-1,4′-piperidin]-2-yl]oxy}acetyl)(methyl)amino]propyl}(methyl)carbamoyl]benzyl}(methyl)amino]hexanoyl}(methyl)amino]ethyl}piperidin-4-yl biphenyl-2-ylcarbamate]", "values": [{"measurement": "ED50", "setting": "neurokinin NK2 receptor", "result": 0.0127, "unit": "mg/kg"}, {"measurement": "Ki", "setting": "human M3 receptor; [1]", "result": 0.32, "unit": "nM"}, {"measurement": "Ki", "setting": "substance P receptor", "result": 0.87, "unit": "nM"}]}, {"smiles": "CN(CCN1CCC(OC(=O)Nc2ccccc2-c2ccccc2)CC1)C(=O)CCCCCNc1ccc(C(=O)N(C)CCN(C)C(=O)CO[C@H]2Cc3ccccc3C23CCN(CC[C@@]2(c4ccc(F)cc4)CN(C(=O)c4cc(C(F)(F)F)cc(C(F)(F)F)c4)CO2)CC3)cc1", "note": "[Example 16, 1-(2-{[6-({4-[{2-[({[(2S)-1′-{2-[(5R)-3-[3,5-Bis(trifluoromethyl)benzoyl]-5-(4-fluorophenyl)-1,3-oxazolidin-5-yl]ethyl}-2,3-dihydrospiro[indene-1,4′-piperidin]-2-yl]oxy}acetyl)(methyl)amino]ethyl}(methyl)carbamoyl]phenyl}amino)hexanoyl](methyl)amino}ethyl)piperidin-4-yl biphenyl-2-ylcarbamate trihydrochloride]", "values": [{"measurement": "ED50", "setting": "neurokinin NK2 receptor", "result": 0.0286, "unit": "mg/kg"}, {"measurement": "Ki", "setting": "human M3 receptor", "result": 2.4, "unit": "nM"}, {"measurement": "Ki", "setting": "substance P receptor", "result": 2.5, "unit": "nM"}]}, {"smiles": "CN(CCN1CCC(OC(=O)Nc2ccccc2-c2ccccc2)CC1)C(=O)CCCCCNc1ccc(C(=O)N(CCCN(C)C(=O)CO[C@H]2Cc3ccccc3C23CCN(CC[C@@]2(c4ccc(F)cc4)CN(C(=O)c4cc(C(F)(F)F)cc(C(F)(F)F)c4)CO2)CC3)C2CC2)cc1", "note": "[Example 25, 1-(2-{[6-({4-[{3-[({[(2S)-1′-{2-[(5R)-3-[3,5-Bis(trifluoromethyl)benzoyl]-5-(4-fluorophenyl)-1,3-oxazolidin-5-yl]ethyl}-2,3-dihydrospiro[indene-1,4′-piperidin]-2-yl]oxy}acetyl)(methyl)amino]propyl}(cyclopropyl)carbamoyl]phenyl}amino)hexanoyl](methyl)amino}ethyl)piperidin-4-yl biphenyl-2-ylcarbamate trihydrochloride]", "values": [{"measurement": "ED50", "setting": "neurokinin NK2 receptor", "result": 0.0727, "unit": "mg/kg"}, {"measurement": "Ki", "setting": "human M3 receptor", "result": 1.4, "unit": "nM"}, {"measurement": "Ki", "setting": "substance P receptor", "result": 1.7, "unit": "nM"}]}]}
